Where “and” joins values, the source holds several entries; their conditions need not be identical. Equal entries are not always repeated. Where two headings read alike, the source gives them in different places.
How the values were obtained:
[1] = tested on: SARS-CoV-2 replication in Vero E6 cells; conditions: cited from earlier work
[2] = for myricetin consumed: GSH, 600 min
[3] = tested on: SARS-CoV-2 replication in Vero E6 cells; experiment: microbe, parasite or virus in culture; format: cell-based
[4] = male, ICR, in vivo, po, 30 mg/kg
PK study in mice = conditions: mouse; for half-life: male, ICR, plasma; for T1/2: individual animals
in vivo = conditions: male, ICR, mouse; for AUC(0-inf): AUCINF_obs; for AUC(0-t): AUClast; for MRT inf: MRTINF_obs; for half-life: T1/2
in vitro = conditions: African green monkey
SARS-CoV-2 PLpro = SARS-CoV-2 PLpro (Severe acute respiratory syndrome coronavirus 2, UniProt P0DTD1); format: biochemical
[5] = target: chymotrypsin from bovine pancreas (Bos taurus, UniProt P00766); experiment: biochemical
[6] = Severe acute respiratory syndrome coronavirus 2, Vero C1008, 24 h
[7] = iv, 10 mg/kg, Concentration in mouse plasma, Mean
[8] = po, 30 mg/kg, Concentration in mouse plasma
[9] = po, 30 mg/kg, Concentration in mouse plasma, Mean
[10] = Severe acute respiratory syndrome coronavirus 2, Vero C1008

O=c1cc(-c2ccccc2)oc2cc(O)c(O)c(O)c12 [baicalein, reference compound]
EC50 [1]: 2940 nM | adduct with GSH [2]: no adduct of GSH with baicalein was detected

COc1cc(O)c2c(=O)c(O)c(-c3cc(O)c(O)c(O)c3)oc2c1 [compound 3, 7-O-methyl myricetin]
EC50 [3, 6]: 12.6 µM

O=c1c(O)c(-c2cc(O)c(O)c(O)c2)oc2cc(OCC3CCCC3)cc(O)c12 [compound 6, 7-O-cyclopentylmethyl-myricetin]
inhibition ratio (%) ([3]; 100 µM): 99.992% and 99.991% and 99.989% and 98.833% and 95.7336% and 99.607% and 99.987% and 99.985% | EC50 ([3]; read-out: EC50): 10.1 µM and 7.07 µM and 5.5 µM

COc1cc(O)c2c(c1)O[C@H](c1cc(O)c(O)c(O)c1)[C@@H](O)C2=O [compound 7, 7-O-methyl dihydromyricetin]
Concentration in mouse plasma ([4]; 8 h): 11.5 ng/mL | inhibition ratio (%) ([3]; 6.25 µM): 21.811% and 15.067% and 12.154% | inhibition ratio (%) ([3]; 25 µM): 58.083% and 57.749% and 55.409% | inhibition ratio (%) ([3]; 50 µM): 75.679% and 73.921% and 74.205% | inhibition ratio (%) ([3]; 200 µM): 99.619% and 99.626% and 99.565% | EC50 [3, 6]: 11.5 µM | half-life (PK study in mice; iv, 10 mg/kg, T1/2, mice, i.v. 10 mg/kg): 34.8 ± 37.8 min | half-life (PK study in mice; iv, 10 mg/kg, T1/2, mouse, i.v. 10 mg/kg, mean): 34.8 min | half-life (PK study in mice; po, 30 mg/kg, T1/2, mice, p.o. 30 mg/kg): 104 min | half-life (PK study in mice; po, 30 mg/kg, T1/2, mouse, p.o. 30 mg/kg, mean): 104 min | T1/2 (PK study in mice; i.v. 10 mg/kg, 10 mg/kg): 0.12 h and 1.62 h and 0.09 h and 0.67 h and 0.38 h | T1/2 (PK study in mice; p.o. 30 mg/kg, 30 mg/kg): 1.85 h and 3.11 h and 1.44 h and 1.31 h and 0.98 h | bioavailability (in vivo): 18.1% | MRT (in vivo; iv, 10 mg/kg): 41.4 ± 51.6 min | concentration at 0.05 h (in vivo; [7]): 3190 ng/mL | concentration at 2 h (in vivo; [7]): 62.4 ng/mL | concentration at 4 h (in vivo; [7]): 23.6 ng/mL | concentration at 8 h (in vivo; [7]): 0 ng/mL | concentration at 24 h (in vivo; [7]): 0 ng/mL | MRT (in vivo; po, 30 mg/kg): 113 min | Tmax (in vivo; po, 30 mg/kg): 15 min | bioavailability (in vivo; po, 30 mg/kg): 18.1% | AUC(0-inf) (in vivo; po, 30 mg/kg): 588 ng·h/mL | AUC(0-t) (in vivo; po, 30 mg/kg): 510 ng·h/mL | concentration at 0.5 h (in vivo; [8]): 200 ng/mL | concentration at 1 h (in vivo; [8]): 112 ng/mL | concentration at 8 h (in vivo; [8]): 10.1 ng/mL | concentration at 0.5 h (in vivo; [9]): 279 ng/mL | concentration at 1 h (in vivo; [9]): 118 ng/mL | concentration at 2 h (in vivo; [9]): 61.2 ng/mL | concentration at 4 h (in vivo; [9]): 32.9 ng/mL | concentration at 8 h (in vivo; [9]): 4.32 ng/mL | concentration at 24 h (in vivo; [9]): 0 ng/mL

O=c1c(O)c(-c2cc(O)c(O)c(O)c2)oc2cc(OP(=O)(Oc3ccccc3)Oc3ccccc3)cc(O)c12 [compound 9]
EC50 [3, 6]: 3.15 µM

O=C1c2c(O)cc(OP(=O)(Oc3ccccc3)Oc3ccccc3)cc2O[C@H](c2cc(O)c(O)c(O)c2)[C@H]1O [compound 10]
EC50 [3]: 6.99 µM and 8.24 µM and 10.2 µM and 10.4 µM and 8.4 µM | EC50 [3, 10]: 9.94 µM | EC50 [3, 6]: 9.03 µM

O=C1c2c(O)cc(O)cc2O[C@H](c2cc(O)c(O)c(O)c2)[C@H]1O [dihydromyricetin]
EC50 [3]: 13.9 µM and 9.94 µM and 13.7 µM and 14 µM and 17.6 µM | EC50 [3, 10]: 12.3 µM | EC50 [3, 6]: 13.6 µM

O=c1c(O)c(-c2cc(O)c(O)c(O)c2)oc2cc(O)cc(O)c12 [myricetin, 3,5,7,3′,4′,5′-hexahydroxyflavone]
T1/2 ([4]; mouse): 26.4 min | CC50 (in vitro): > 200 µM | EC50 [3, 6]: 8 µM | times weaker than against 3CLpro (SARS-CoV-2 PLpro): more than 100 | IC50 [5]: 132 ± 10.6 µM | times weaker than against 3CLpro [5]: more than 100 | myricetin consumed ([2]; absence of oxygen): 11% | Ln(%parent) ([2]; myricetin reacting with glutathione, 0h): 4.593 and 4.572 and 4.649 | Ln(%parent) ([2]; myricetin reacting with glutathione, 2h): 4.472 and 4.529 and 4.531 | Ln(%parent) ([2]; myricetin reacting with glutathione, 4h): 4.27 and 4.376 and 4.3091 | Ln(%parent) ([2]; myricetin reacting with glutathione, 6h): 4.107 and 4.203 and 4.174 | Ln(%parent) ([2]; myricetin reacting with glutathione, 8h): 3.902 and 4.0179 and 3.984 | Ln(%parent) ([2]; myricetin reacting with glutathione, 10h): 3.729 and 3.812 and 3.826 | kpseudo1st ([2]; myricetin reacting with glutathione, single independent experiment): 0.001475 and 0.001311 and 0.001403 | myricetin consumed ([2]; presence of oxygen): 65% | MRT (in vivo; ip, 10 mg/kg): 5.4 min | AUC(0-inf) (in vivo; ip, 10 mg/kg): 1040 ng·h/mL | AUC(0-t) (in vivo; ip, 10 mg/kg): 1090 ± 103 ng·h/mL | Cmax (in vivo; ip, 10 mg/kg): 1800 ± 346 ng/mL | MRT inf (in vivo; ip, 10 mg/kg): 66.6 min | half-life (in vivo; ip, 10 mg/kg): 126 ± 1.2 min | MRT (in vivo; po, 30 mg/kg): 50.4 min | AUC(0-inf) (in vivo; po, 30 mg/kg): 8.51 ng·h/mL | AUC(0-t) (in vivo; po, 30 mg/kg): 6.07 ng·h/mL | Cmax (in vivo; po, 30 mg/kg): 8.59 ng/mL | MRT inf (in vivo; po, 30 mg/kg): 50.4 min | half-life (in vivo; po, 30 mg/kg): 26.4 min | Tmax (in vivo; po, 30 mg/kg, Tmax): 30 min

CCC(CC)COC(=O)[C@H](C)N[P@](=O)(OC[C@H]1O[C@@](C#N)(c2ccc3c(N)ncnn23)[C@H](O)[C@@H]1O)Oc1ccccc1 [remdesivir, reference compound]
EC50 [3, 6]: 3.68 µM

CCC(CC)COC(=O)[C@H](C)N[P@](=O)(OC[C@H]1O[C@@](C#N)(c2ccc3c(N)ncnn23)[C@H](O)[C@@H]1O)Oc1ccccc1 [remisivir]
EC50 ([3]; read-out: EC50 (µM) Mean): 3.68 µM | inhibition ratio (%) (Vero E6 cells; concentration 2.34375 (unit not given)): 99.5877% and 102.33% and 102.223% | inhibition ratio (%) (Vero E6 cells; concentration 4.6875 (unit not given)): 100.126% and 103.513% and 104.159% | inhibition ratio (%) (Vero E6 cells; concentration 9.375 (unit not given)): 103.244% and 98.6198% and 99.2113% | inhibition ratio (%) (Vero E6 cells; concentration 18.75 (unit not given)): 101.362% and 100.126% and 95.6085% | inhibition ratio (%) (Vero E6 cells; concentration 37.5 (unit not given)): 102.707% and 103.352% and 97.8132% | inhibition ratio (%) (Vero E6 cells; concentration 75 (unit not given)): 97.383% and 95.0708% and 98.7274% | inhibition ratio (%) (Vero E6 cells; concentration 150 (unit not given)): 83.7247% and 84.1011% and 85.4454% | inhibition ratio (%) (Vero E6 cells; concentration 300 (unit not given)): 42.4807% and 43.2336% and 43.126%

N-phenylacrylamide [reference compound]
kpseudo1st [2]: 0.02117 and 0.01952 and 0.0207

Reference: publication PMC8206078, “Identification of pyrogallol as a warhead in design of covalent inhibitors for the SARS-CoV-2 3CL protease” (Nature Communications, 2021)
